Where two headings read alike, the source gives them in different places.
What was measured:
Experiment in all cases: Ras-Raf disruption / FRET / MOA assay (BRAF RBD)
Format in all cases: biochemical
KRAS G13D = KRAS G13D (Homo sapiens, UniProt P01116+P62937, G13D); conditions: with Cyclophilin A
Procedure, shortened: (§1)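 Compound-induced Ras–Cyclophilin A ternary complex disrupting BRAF RBD binding, read as IC50 from reduced TR-FRET ratio relative to DMSO. Final: Ras-GMPPNP 12.5 nM, BRAF RBD 50 nM, Cyclophilin A 25 μM, top compound 30 μM (3-fold, 10 points); 3 h at 25 °C, then 1.5 h with detection antibodies.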

NRAS Q61R = NRAS Q61R (Homo sapiens, UniProt P01111+P62937, Q61R)
Sequence of NRAS Q61R (P01111 whole entry Q61R): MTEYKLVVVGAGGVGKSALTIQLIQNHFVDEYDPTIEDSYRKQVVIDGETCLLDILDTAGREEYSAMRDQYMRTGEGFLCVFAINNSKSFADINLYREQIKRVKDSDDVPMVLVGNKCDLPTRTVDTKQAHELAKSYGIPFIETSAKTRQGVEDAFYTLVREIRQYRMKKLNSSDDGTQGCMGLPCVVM
Sequence of NRAS Q61R (P62937 whole entry): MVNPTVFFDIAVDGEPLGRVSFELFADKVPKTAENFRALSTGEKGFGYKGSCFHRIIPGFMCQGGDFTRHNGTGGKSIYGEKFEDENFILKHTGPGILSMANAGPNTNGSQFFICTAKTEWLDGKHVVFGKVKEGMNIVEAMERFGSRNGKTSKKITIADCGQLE
Procedure, shortened: as §1

KRAS Q61H = KRAS Q61H (Homo sapiens, UniProt P01116+P62937, Q61H)
Sequence of KRAS Q61H (P01116 1-169 isoform P01116-2 Q61H limits assumed): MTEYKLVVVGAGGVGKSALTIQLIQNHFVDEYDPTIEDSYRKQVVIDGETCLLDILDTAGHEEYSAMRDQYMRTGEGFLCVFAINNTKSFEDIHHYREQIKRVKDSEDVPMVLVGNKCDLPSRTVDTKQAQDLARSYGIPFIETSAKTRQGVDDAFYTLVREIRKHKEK
Sequence of KRAS Q61H (P62937 whole entry): as the sequence (P62937 whole entry) above
Procedure, shortened: as §1

KRAS G12D = KRAS G12D (Homo sapiens, UniProt P01116+P62937, G12D); conditions: with Cyclophilin A
Sequence of KRAS G12D (P01116 1-169 isoform P01116-2 G12D limits assumed): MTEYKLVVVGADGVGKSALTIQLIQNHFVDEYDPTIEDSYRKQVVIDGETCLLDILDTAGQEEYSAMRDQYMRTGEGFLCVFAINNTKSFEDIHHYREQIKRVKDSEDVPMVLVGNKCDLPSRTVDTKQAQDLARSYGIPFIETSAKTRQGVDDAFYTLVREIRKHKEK
Sequence of KRAS G12D (P62937 whole entry): as the sequence (P62937 whole entry) above
Procedure, shortened: as §1

KRAS G12S = KRAS G12S (Homo sapiens, UniProt P01116+P62937, G12S); conditions: with Cyclophilin A
Sequence of KRAS G12S (P01116 1-169 isoform P01116-2 G12S limits assumed): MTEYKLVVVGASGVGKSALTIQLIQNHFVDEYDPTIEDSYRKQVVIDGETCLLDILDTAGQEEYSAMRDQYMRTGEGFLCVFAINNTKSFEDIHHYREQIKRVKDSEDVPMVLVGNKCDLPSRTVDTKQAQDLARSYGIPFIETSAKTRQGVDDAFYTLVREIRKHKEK
Sequence of KRAS G12S (P62937 whole entry): as the sequence (P62937 whole entry) above
Procedure, shortened: as §1

NRAS WT = NRAS WT (Homo sapiens, UniProt P01111+P62937)
Sequence of NRAS WT (P01111 whole entry): as the sequence (P01111 whole entry Q61R) above, with R61Q counted along it
Sequence of NRAS WT (P62937 whole entry): as the sequence (P62937 whole entry) above
Procedure, shortened: as §1

NRAS Q61K = NRAS Q61K (Homo sapiens, UniProt P01111+P62937, Q61K)
Sequence of NRAS Q61K (P01111 whole entry Q61K): as the sequence (P01111 whole entry Q61R) above, with R61K counted along it
Sequence of NRAS Q61K (P62937 whole entry): as the sequence (P62937 whole entry) above
Procedure, shortened: as §1

NRAS G12C = NRAS G12C (Homo sapiens, UniProt P01111+P62937, G12C)
Sequence of NRAS G12C (P01111 whole entry G12C): as the sequence (P01111 whole entry Q61R) above, with G12C, R61Q counted along it
Sequence of NRAS G12C (P62937 whole entry): as the sequence (P62937 whole entry) above
Procedure, shortened: as §1

KRAS WT = KRAS WT (Homo sapiens, UniProt P01116+P62937); conditions: with Cyclophilin A
Sequence of KRAS WT (P01116 1-169 isoform P01116-2 limits assumed): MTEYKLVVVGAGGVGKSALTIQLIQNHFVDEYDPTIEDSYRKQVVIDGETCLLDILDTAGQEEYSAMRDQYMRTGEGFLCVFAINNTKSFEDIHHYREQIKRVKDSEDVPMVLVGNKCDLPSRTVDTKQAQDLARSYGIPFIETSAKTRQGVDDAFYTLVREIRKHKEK
Sequence of KRAS WT (P62937 whole entry): as the sequence (P62937 whole entry) above
Procedure, shortened: as §1

KRAS G12V = KRAS G12V (Homo sapiens, UniProt P01116+P62937, G12V); conditions: with Cyclophilin A
Sequence of KRAS G12V (P01116 1-169 isoform P01116-2 G12V limits assumed): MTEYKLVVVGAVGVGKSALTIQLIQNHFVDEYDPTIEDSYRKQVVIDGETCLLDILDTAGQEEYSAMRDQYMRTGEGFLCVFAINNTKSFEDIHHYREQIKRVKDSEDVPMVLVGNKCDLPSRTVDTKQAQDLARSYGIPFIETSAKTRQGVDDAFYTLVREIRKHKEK
Sequence of KRAS G12V (P62937 whole entry): as the sequence (P62937 whole entry) above
Procedure, shortened: as §1

KRAS G13C = KRAS G13C (Homo sapiens, UniProt P01116+P62937, G13C); conditions: with Cyclophilin A
Sequence of KRAS G13C (P01116 1-169 isoform P01116-2 G13C limits assumed): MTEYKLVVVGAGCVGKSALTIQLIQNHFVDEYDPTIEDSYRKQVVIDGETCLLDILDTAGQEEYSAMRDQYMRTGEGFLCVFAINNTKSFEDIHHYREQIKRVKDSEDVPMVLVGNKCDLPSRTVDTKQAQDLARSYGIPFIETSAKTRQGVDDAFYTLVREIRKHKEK
Sequence of KRAS G13C (P62937 whole entry): as the sequence (P62937 whole entry) above
Procedure, shortened: as §1

KRAS G12C = KRAS G12C (Homo sapiens, UniProt P01116+P62937, G12C); conditions: with Cyclophilin A
Sequence of KRAS G12C (P01116 1-169 isoform P01116-2 G12C limits assumed): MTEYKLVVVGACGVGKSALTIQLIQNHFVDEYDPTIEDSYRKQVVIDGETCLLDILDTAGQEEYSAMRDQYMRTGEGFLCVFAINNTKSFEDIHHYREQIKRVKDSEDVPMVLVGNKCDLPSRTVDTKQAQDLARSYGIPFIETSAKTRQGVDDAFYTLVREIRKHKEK
Sequence of KRAS G12C (P62937 whole entry): as the sequence (P62937 whole entry) above
Procedure, shortened: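 TR-FRET read-out after 1.5 h with anti-His Eu-W1024 (10 nM) and anti-GST APC (50 nM), following 3 h at 25 °C of compound (top 30 μM, 3-fold, 10 points) with 25 μM Cyclophilin A, 12.5 nM GMPPNP-loaded K-Ras G12C and 50 nM BRAF RBD; IC50 reported.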

[1] = KRAS G13D FRET data IC50, Ras-Raf disruption
[2] = KRAS G12D FRET data IC50, Ras-Raf disruption
[3] = KRAS G12S FRET data IC50, Ras-Raf disruption
[4] = NRAS G12C FRET data IC50, NRAS G12C
[5] = KRAS WT FRET data IC50, Ras-Raf disruption
[6] = KRAS G12V FRET data IC50, Ras-Raf disruption
[7] = KRAS G13C FRET data IC50, Ras-Raf disruption
[8] = KRAS G12C FRET data IC50, Ras-Raf disruption
[9] = Ras-Raf disruption, read-out: KRAS G13D FRET data IC50
[10] = NRAS Q61R, read-out: NRAS Q61R FRET data IC50
[11] = KRAS Q61H, read-out: KRAS Q61H FRET data IC50
[12] = Ras-Raf disruption, read-out: KRAS G12D FRET data IC50
[13] = Ras-Raf disruption, read-out: KRAS G12S FRET data IC50
[14] = NRAS WT, read-out: NRAS WT FRET data IC50
[15] = NRAS Q61K, read-out: NRAS Q61K FRET data IC50
[16] = NRAS G12C, read-out: NRAS G12C FRET data IC50
[17] = Ras-Raf disruption, read-out: KRAS WT FRET data IC50
[18] = Ras-Raf disruption, read-out: KRAS G12V FRET data IC50
[19] = Ras-Raf disruption, read-out: KRAS G13C FRET data IC50
[20] = Ras-Raf disruption, read-out: KRAS G12C FRET data IC50

Sequence of KRAS G13D (P01116 1-169 isoform P01116-2 G13D limits assumed): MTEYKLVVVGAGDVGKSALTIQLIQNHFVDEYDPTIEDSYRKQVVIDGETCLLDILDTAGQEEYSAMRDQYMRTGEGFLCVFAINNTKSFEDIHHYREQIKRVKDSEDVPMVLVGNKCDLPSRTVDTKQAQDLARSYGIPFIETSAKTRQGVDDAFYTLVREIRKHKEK
Sequence of KRAS G13D (P62937 whole entry): as the sequence (P62937 whole entry) above

Row | Structure (SMILES) | IC50 (KRAS G13D; [9]) [nM] | IC50 (NRAS Q61R; [10]) [nM] | IC50 (KRAS Q61H; [11]) [nM] | IC50 (KRAS G12D; [12]) [nM] | IC50 (KRAS G12S; [13]) [nM] | IC50 (NRAS WT; [14]) [nM] | IC50 (NRAS Q61K; [15]) [nM] | IC50 (NRAS G12C; [16]) [nM] | IC50 (KRAS WT; [17]) [nM] | IC50 (KRAS G12V; [18]) [nM] | IC50 (KRAS G13C; [19]) [nM] | IC50 (KRAS G12C; [20]) [nM] | also measured
1 | CCn1c(-c2cccnc2[C@H](C)OC)c2c3cc(ccc31)-c1cc(O)cc(c1)C[C@H](NC(=O)[C@H](C(C)C)N(C)C(=O)C13CC(CN1C(=O)[C@H]1CN1)C3)C(=O)N1CCC[C@H](N1)C(=O)OCC(C)(C)C2 [Example 164] |  |  |  |  |  |  |  |  |  |  |  |  | IC50 (KRAS G13D; [1]): 100 to 1000 nM; IC50 (NRAS Q61R): 1000 to 10000 nM; IC50 (KRAS Q61H): 10 to 100 nM; IC50 (KRAS G12D; [2]): 100 to 1000 nM; IC50 (KRAS G12S; [3]): 100 to 1000 nM; IC50 (NRAS WT): 100 to 1000 nM; IC50 (NRAS Q61K): 1000 to 10000 nM; IC50 (NRAS G12C; [4]): 100 to 1000 nM; IC50 (KRAS WT; [5]): 100 to 1000 nM; IC50 (KRAS G12V; [6]): 100 to 1000 nM; IC50 (KRAS G13C; [7]): 100 to 1000 nM; IC50 (KRAS G12C; [8]): 100 to 1000 nM
2 | CCn1c(-c2cc(N3CCN(C)CC3)cnc2[C@H](C)OC)c2c3cc(ccc31)-c1cc(O)cc(c1)C[C@H](NC(=O)[C@H](C1CCCC1)N(C)C(=O)CN(C)C(=O)[C@@H]1N[C@@H]1C1CC1)C(=O)N1CCC[C@H](N1)C(=O)OCC(C)(C)C2 [Example 325] |  |  |  |  |  |  |  |  |  |  |  |  | IC50 (KRAS G13D; [1]): 10 to 100 nM; IC50 (NRAS Q61R): 10 to 100 nM; IC50 (KRAS Q61H): < 10 nM; IC50 (KRAS G12D; [2]): < 10 nM; IC50 (KRAS G12S; [3]): < 10 nM; IC50 (NRAS WT): < 10 nM; IC50 (NRAS Q61K): 10 to 100 nM; IC50 (NRAS G12C; [4]): < 10 nM; IC50 (KRAS WT; [5]): < 10 nM; IC50 (KRAS G12V; [6]): < 10 nM; IC50 (KRAS G13C; [7]): < 10 nM; IC50 (KRAS G12C; [8]): < 10 nM
3 | CCn1c(-c2cccnc2[C@H](C)OC)c2c3cc(ccc31)-c1csc(n1)C[C@H](NC(=O)[C@H](C(C)C)N(C)C(=O)N(C)[C@H]1CCN(C(=O)[C@@H]3CN3)C1)C(=O)N1CCC[C@H](N1)C(=O)OCC(C)(C)C2 (atropisomer, axis not shown) [Example 310] | 1000 to 10000 | 100 to 1000 | 100 to 1000 | 1000 to 10000 | 100 to 1000 | 100 to 1000 | 100 to 1000 | 100 to 1000 | 100 to 1000 | 100 to 1000 | 100 to 1000 | 100 to 1000 | 
4 | CCn1c(-c2cccnc2[C@H](C)OC)c2c3cc(ccc31)-c1cc(O)cc(c1)C[C@H](NC(=O)[C@H](C1CCCC1)N(C)C(=O)CN(C)C(=O)[C@H]1N[C@H]1C1(OC)CC1)C(=O)N1CCC[C@H](N1)C(=O)OCC(C)(C)C2 (single isomer, unassigned) [Example 322] |  |  |  |  |  |  |  |  |  |  |  |  | IC50 (KRAS G13D; [1]): 100 to 1000 nM; IC50 (NRAS Q61R): 100 to 1000 nM; IC50 (KRAS Q61H): 10 to 100 nM; IC50 (KRAS G12D; [2]): 100 to 1000 nM; IC50 (KRAS G12S; [3]): 10 to 100 nM; IC50 (NRAS WT): 10 to 100 nM; IC50 (NRAS Q61K): 100 to 1000 nM; IC50 (NRAS G12C; [4]): 10 to 100 nM; IC50 (KRAS WT; [5]): 10 to 100 nM; IC50 (KRAS G12V; [6]): 10 to 100 nM; IC50 (KRAS G13C; [7]): 10 to 100 nM; IC50 (KRAS G12C; [8]): 10 to 100 nM
5 | CCn1c(-c2cccnc2[C@H](C)OC)c2c3cc(ccc31)-c1csc(n1)C[C@H](NC(=O)[C@H](C(C)C)N(C)C(=O)N1CC[C@@H](N(C)C(=O)[C@@H]3CN3)C1)C(=O)N1CCC[C@H](N1)C(=O)OCC(C)(C)C2 (atropisomer, axis not shown) [Example 227] | 100 to 1000 | 100 to 1000 | 10 to 100 | 100 to 1000 | 100 to 1000 | 100 to 1000 | 10 to 100 | 10 to 100 | 100 to 1000 | 100 to 1000 | 100 to 1000 | 100 to 1000 | 
6 | CCn1c(-c2cccnc2[C@H](C)OC)c2c3cc(ccc31)-c1cc(O)cc(c1)C[C@H](NC(=O)[C@H](C(C)C)N(C)C(=O)[C@H]1C[C@H](NC(=O)[C@@H]3CN3)C1)C(=O)N1CCC[C@H](N1)C(=O)OCC(C)(C)C2 [Example 167] | 10 to 100 | 100 to 1000 | 10 to 100 | 10 to 100 | 10 to 100 | 10 to 100 | 10 to 100 | < 10 | 10 to 100 | 10 to 100 | 10 to 100 | < 10 | 
7 | CCn1c(-c2cccnc2[C@H](C)OC)c2c3cc(ccc31)-c1cc(O)cc(c1)C[C@H](NC(=O)[C@H](C(C)C)N(C)C(=O)CN(C)S(=O)(=O)[C@@H]1CN1C)C(=O)N1CCC[C@H](N1)C(=O)OCC(C)(C)C2 (single isomer, unassigned) [Example 92] | 100 to 1000 | 100 to 1000 | 10 to 100 | 100 to 1000 | 10 to 100 | 10 to 100 | 100 to 1000 | 10 to 100 | 10 to 100 | 100 to 1000 | 10 to 100 | 10 to 100 | 
8 | CCn1c(-c2cccnc2[C@H](C)OC)c2c3cc(ccc31)-c1csc(n1)C[C@H](NC(=O)[C@H](C(C)C)N(C)C(=O)N(C)C1CN(C(=O)[C@@H]3CN3)C1)C(=O)N1CCC[C@H](N1)C(=O)OCC(C)(C)C2 [Example 221] | 100 to 1000 | 100 to 1000 | 100 to 1000 | 1000 to 10000 | 100 to 1000 | 100 to 1000 | 100 to 1000 | 100 to 1000 | 100 to 1000 | 100 to 1000 | 100 to 1000 | 100 to 1000 | 
9 | CCn1c(-c2cccnc2[C@H](C)OC)c2c3cc(ccc31)-c1cc(O)cc(c1)C[C@H](NC(=O)[C@H](C(C)C)N(C)C(=O)c1nc(NC(=O)[C@H]3CN3)cs1)C(=O)N1CCC[C@H](N1)C(=O)OCC(C)(C)C2 (atropisomer, axis not shown) [Example 212] | 100 to 1000 | 100 to 1000 | 10 to 100 | 1000 to 10000 | 100 to 1000 | 100 to 1000 | 100 to 1000 | 100 to 1000 | 100 to 1000 | 100 to 1000 | 10 to 100 | 100 to 1000 | 
10 | CCn1c(-c2cccnc2[C@H](C)OC)c2c3cc(ccc31)-c1cc(O)cc(c1)C[C@H](NC(=O)[C@H](C(C)C)N(C)C(=O)[C@H]1CCCN(C(=O)[C@H]3CN3)C1)C(=O)N1CCC[C@H](N1)C(=O)OCC(C)(C)C2 [Example 165] | 100 to 1000 | 1000 to 10000 | 100 to 1000 | 100 to 1000 | 100 to 1000 | 100 to 1000 | 1000 to 10000 | < 10 | 100 to 1000 | 10 to 100 | 100 to 1000 | < 10 | 
11 | CCn1c(-c2cccnc2[C@H](C)OC)c2c3cc(ccc31)-c1csc(n1)C[C@H](NC(=O)[C@H](C(C)C)N(C)C(=O)N1CCCN(C(=O)[C@@H]3CN3)CC1)C(=O)N1CCC[C@H](N1)C(=O)OCC(C)(C)C2 (atropisomer, axis not shown) [Example 223] | 100 to 1000 | 10 to 100 | 10 to 100 | 100 to 1000 | 100 to 1000 | 10 to 100 | 10 to 100 | 10 to 100 | 10 to 100 | 100 to 1000 | 100 to 1000 | 10 to 100 | 
12 | CCn1c(-c2cccnc2[C@H](C)OC)c2c3cc(ccc31)-c1csc(n1)C[C@H](NC(=O)[C@H](C(C)C)N(C)C(=O)N1CCN(C(=O)[C@H]3CN3)C[C@H]1C)C(=O)N1CCC[C@H](N1)C(=O)OCC(C)(C)C2 [Example 301] | 100 to 1000 | 10 to 100 | 10 to 100 | 100 to 1000 | 10 to 100 | 10 to 100 | 10 to 100 | 10 to 100 | 10 to 100 | 100 to 1000 | 10 to 100 | 10 to 100 | 

Source: patent US20230233569A1 (Revolution Medicines, Inc., priority 2020, published 2023)
